ChEMBL document CHEMBL1154954, “Synthesis and in vitro evaluation of (18)F-labelled S-fluoroalkyl diarylguanidines: Novel high-affinity NMDA receptor antagonists for imaging with PET” (Bioorg Med Chem Lett, 2010)
Calls of active or inactive are those of the source. The rule behind the calls is not given here.

Tests used:
[1] = Binding affinity to NMDA receptor PCP binding site
Glutamate NMDA receptor = assay: Displacement of [3H]TCP from NMDA receptor PCP binding site in rat cerebral cortex homogenate; type: tissue-based
[2] = Distribution coefficient, log D at pH 7.5; type: physicochemical; conditions: octanol/water
[3] = target: Voltage-gated inwardly rectifying potassium channel KCNH2 (Homo sapiens, UniProt Q12809); assay: Inhibition of human ERG at 10 nM; conditions: 0.01 µM
hERG (KCNH2) = hERG (KCNH2) (Homo sapiens, UniProt Q12809); assay: Inhibition of human ERG at 1 uM
[4] = Octanol-phosphate buffer partition coefficient, log D at pH 7.4; type: physicochemical
[5] = Inhibition of sigma 2 receptor at 10 nM; conditions: tested as the 18F-labelled form
[6] = Inhibition of opioid receptor at 10 nM; conditions: tested as the 18F-labelled form
[7] = target: Sigma non-opioid intracellular receptor 1 (Homo sapiens) (UniProt Q99720); assay: Inhibition of sigma 1 receptor at 1 uM; conditions: tested as the 18F-labelled form
[8] = target: 5-hydroxytryptamine receptor 5A (Homo sapiens) (UniProt P47898); assay: Inhibition of 5HT5A receptor at 1 uM; conditions: tested as the 18F-labelled form
[9] = Inhibition of opioid receptor at 1 uM; conditions: tested as the 18F-labelled form
[10] = target: Sigma non-opioid intracellular receptor 1 (Homo sapiens) (UniProt Q99720); assay: Inhibition of sigma 1 receptor at 10 nM; conditions: tested as the 18F-labelled form
[11] = target: Sodium-dependent noradrenaline transporter (Homo sapiens) (UniProt P23975); assay: Inhibition of norepinephrine transporter at 1 uM; conditions: tested as the 18F-labelled form
[12] = Inhibition of GABA A receptor at 10 nM; conditions: tested as the 18F-labelled form
[13] = Inhibition of voltage gated sodium channel site 2 at 10 nM; conditions: tested as the 18F-labelled form
[14] = Inhibition of sigma 2 receptor at 1 uM; conditions: tested as the 18F-labelled form
[15] = Inhibition of voltage gated sodium channel site 2 at 1 uM; conditions: tested as the 18F-labelled form
[16] = Inhibition of GABA A receptor at 1 uM; conditions: tested as the 18F-labelled form
[17] = target: 5-hydroxytryptamine receptor 5A (Homo sapiens) (UniProt P47898); assay: Inhibition of 5HT5A receptor at 10 nM; conditions: tested as the 18F-labelled form
[18] = target: Sodium-dependent noradrenaline transporter (Homo sapiens) (UniProt P23975); assay: Inhibition of norepinephrine transporter at 10 nM; conditions: tested as the 18F-labelled form
[19] = Lipophilicity, log D of the compound; type: physicochemical; conditions: octanol/water

Chain of Sigma non-opioid intracellular receptor 1 (Homo sapiens) (Q99720 whole entry): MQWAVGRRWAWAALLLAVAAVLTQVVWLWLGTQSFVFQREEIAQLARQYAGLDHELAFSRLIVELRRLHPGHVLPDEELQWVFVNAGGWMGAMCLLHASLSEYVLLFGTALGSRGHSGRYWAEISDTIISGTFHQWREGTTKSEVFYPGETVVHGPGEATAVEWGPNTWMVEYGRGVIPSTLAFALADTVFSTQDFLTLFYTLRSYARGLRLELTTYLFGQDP
Chain of Sodium-dependent noradrenaline transporter (Homo sapiens) (P23975 whole entry): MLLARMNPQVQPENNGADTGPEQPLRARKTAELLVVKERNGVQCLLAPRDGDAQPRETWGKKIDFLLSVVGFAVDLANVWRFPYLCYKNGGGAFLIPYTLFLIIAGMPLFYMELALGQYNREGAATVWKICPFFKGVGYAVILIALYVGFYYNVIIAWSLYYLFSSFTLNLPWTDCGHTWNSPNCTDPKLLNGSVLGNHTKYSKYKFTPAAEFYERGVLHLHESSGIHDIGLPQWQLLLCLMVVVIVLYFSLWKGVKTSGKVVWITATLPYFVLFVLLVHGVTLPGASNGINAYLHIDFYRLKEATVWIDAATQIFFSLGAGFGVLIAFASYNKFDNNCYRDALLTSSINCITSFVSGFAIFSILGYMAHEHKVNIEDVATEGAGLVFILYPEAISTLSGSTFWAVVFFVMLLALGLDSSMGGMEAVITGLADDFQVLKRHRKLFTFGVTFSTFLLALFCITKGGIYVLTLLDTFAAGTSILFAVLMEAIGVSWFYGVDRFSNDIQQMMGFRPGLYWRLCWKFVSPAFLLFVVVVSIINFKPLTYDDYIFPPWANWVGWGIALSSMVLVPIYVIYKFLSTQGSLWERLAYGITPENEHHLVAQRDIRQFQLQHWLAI
Chain of 5-hydroxytryptamine receptor 5A (Homo sapiens) (P47898 whole entry): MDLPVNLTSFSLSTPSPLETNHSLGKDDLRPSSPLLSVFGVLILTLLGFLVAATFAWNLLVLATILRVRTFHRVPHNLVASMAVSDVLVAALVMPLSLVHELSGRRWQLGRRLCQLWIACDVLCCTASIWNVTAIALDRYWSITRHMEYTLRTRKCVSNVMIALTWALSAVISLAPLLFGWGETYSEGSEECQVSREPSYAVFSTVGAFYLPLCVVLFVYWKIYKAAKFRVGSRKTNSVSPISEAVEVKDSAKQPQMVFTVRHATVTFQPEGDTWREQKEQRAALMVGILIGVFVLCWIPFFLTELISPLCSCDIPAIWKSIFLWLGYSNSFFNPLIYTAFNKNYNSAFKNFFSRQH
Chain of Voltage-gated inwardly rectifying potassium channel KCNH2 (Q12809 whole entry): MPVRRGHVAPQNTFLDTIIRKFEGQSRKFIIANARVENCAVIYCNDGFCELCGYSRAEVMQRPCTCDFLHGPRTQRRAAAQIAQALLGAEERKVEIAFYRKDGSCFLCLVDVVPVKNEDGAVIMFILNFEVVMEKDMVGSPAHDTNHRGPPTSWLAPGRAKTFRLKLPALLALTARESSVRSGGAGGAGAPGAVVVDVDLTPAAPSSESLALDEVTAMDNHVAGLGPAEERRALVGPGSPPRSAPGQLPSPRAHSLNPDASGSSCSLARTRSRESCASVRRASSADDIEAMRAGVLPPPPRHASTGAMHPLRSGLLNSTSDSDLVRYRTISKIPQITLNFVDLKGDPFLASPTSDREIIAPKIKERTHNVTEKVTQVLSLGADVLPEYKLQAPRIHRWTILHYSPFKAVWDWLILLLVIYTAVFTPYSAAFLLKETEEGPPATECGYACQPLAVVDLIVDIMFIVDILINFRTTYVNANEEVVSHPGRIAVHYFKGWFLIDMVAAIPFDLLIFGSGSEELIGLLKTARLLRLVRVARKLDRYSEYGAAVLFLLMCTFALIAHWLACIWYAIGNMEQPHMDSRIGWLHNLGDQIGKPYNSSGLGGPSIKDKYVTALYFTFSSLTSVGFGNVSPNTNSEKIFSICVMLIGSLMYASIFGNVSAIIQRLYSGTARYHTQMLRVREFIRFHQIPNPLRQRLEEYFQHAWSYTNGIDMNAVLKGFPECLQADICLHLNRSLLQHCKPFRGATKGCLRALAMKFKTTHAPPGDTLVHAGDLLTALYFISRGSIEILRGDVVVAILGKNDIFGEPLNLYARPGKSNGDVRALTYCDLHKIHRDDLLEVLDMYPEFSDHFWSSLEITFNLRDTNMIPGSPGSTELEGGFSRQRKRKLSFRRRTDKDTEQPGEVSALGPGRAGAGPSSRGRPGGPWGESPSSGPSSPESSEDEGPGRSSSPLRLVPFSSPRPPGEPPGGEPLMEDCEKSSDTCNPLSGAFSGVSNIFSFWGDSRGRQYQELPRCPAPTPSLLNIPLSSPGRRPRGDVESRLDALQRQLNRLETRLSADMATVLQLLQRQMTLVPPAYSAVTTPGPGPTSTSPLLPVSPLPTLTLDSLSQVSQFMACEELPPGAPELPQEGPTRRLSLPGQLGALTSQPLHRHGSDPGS
Chain of hERG (KCNH2) (Q12809 whole entry): as above

[18F]CC12NC(Cc3ccccc31)c1ccccc12 (centres undefined)
Kd [1]: 79 nM

C[C@]12C[C@@H]3C[C@](N)(C1)C[C@@](C[18F])(C3)C2
IC50 [1]: 6000 nM

CSc1ccc(Cl)c(NC(=N)N(C)c2cccc(S[11CH3])c2)c1
Kd (Glutamate NMDA receptor): 1.78 nM | Kd [1]: 1.9 nM | logD [2]: 2.68

CSc1cccc(N(C)C(=N)Nc2cc(SCC[18F])ccc2Cl)c1
Activity [3]: Not Active | inhibition at 1 µM (hERG (KCNH2)): 56% | Kd (Glutamate NMDA receptor): 2.35 nM | logD [4]: 2.49

CSc1cccc(N(C)C(=N)Nc2cc(SCCF)ccc2Cl)c1
Activity [5]: inactive | Activity [6]: inactive | Activity [7]: Active | Activity [8]: Active | Activity [9]: Active | Activity [10]: inactive | Activity [11]: Active | Activity [12]: inactive | Activity [13]: inactive | Activity [14]: Active | inhibition [15]: 47% | Activity [16]: Active | Activity [17]: inactive | Activity [18]: inactive

[11CH3]NC1(c2ccccc2)CCCCC1=O (centres undefined) [[11C]KETAMINE]
Kd [1]: 1200 nM

CN(C(=N)Nc1cccc2ccccc12)c1cccc([123I])c1
Kd [1]: 4.2 nM | logD [19]: 2.19

CSc1ccc(Cl)c(NC(=N)N(C)c2cccc(O[11CH3])c2)c1
Kd [1]: 5.2 nM

CSc1cccc(N(C)C(=N)Nc2cc(SC[18F])ccc2Cl)c1
Kd (Glutamate NMDA receptor): 1.38 nM

[18F]CCc1ccc(C2(N3CCCCC3)CCCCC2)s1
Kd [1]: 38 nM
